Experimental data taken from patent US20240165200A1, “CATH2 AND DERIVATIVES FOR INHIBITING STREPTOCOCCUS SUIS” (Universiteit Utrecht Holding B.V., priority 2021, published 2024).
Converted amounts (≈) assume the structure as drawn. Where a SMILES comes first, the peptide text is derived from it. [ ]: non-standard residue; d: D form.

How the values were obtained:
murine BMDMs = assay type: cell-based, mouse
Description: FIG. 2: Peptide titration on BMDM and BMDCs for cytotoxicity and expression of cell markers. Mouse BMDM (A, C, E, G) and BMDCs (B, D, F, H) were cultured for 6 days with […]. Different concentrations were added at day 6 (A, B, E, F) or the cells were primed with different concentrations peptides at day 1-2 (C, D, G, H). At day 7, cell viability was tested using WST-1 reagent, with no-peptide-control set to 100% viability (A-D) and cells were analyzed by flowcytometry for cell marker expression (E-H). Results are depicted as mean +/−S.E.M. (n=3).
Bone marrow cells, isolated from the femur and tibia of both hindlegs, were stored in FCS/10% DMSO in liquid nitrogen. Cells were grown at a concentration of 5×10^5 cells mL^−1 in RPMI-1640 without phenol red (Thermo Fisher Scientific, MA, USA) supplemented with 10% fetal calf serum (FCS) (Corning, NY, USA) and 1% Penicillin/streptomycin (Thermo Fisher Scientific). […] Cells were stained with antibodies (table 1) for 20 minutes, washed and measured using the BD FACSCanto-II (BD bioscience) and analyzed with FlowJo software (Ashland, OR, USA).
WST-1 reagent (roche) was used for cell viability of BMDCs and BMDM as well as for cell activity of activated splenocytes. […] After 30-60 minutes, colorimetric changes were measured at 450 nm using a FLUOstar Omega microplate reader (BMG Labtech GmbH, Ortenberg, Germany). […]

[1] = Isothermal titration calorimetry (ITC) of peptide binding to LTA-SA; set-up: species or system S. aureus; conditions: 200 μM peptide titrated into LTA-SA, 37° C., dPBS; read-out: Kd (dissociation coefficient)
Description: Thermodynamic binding capacity of 200 μM D-CATH2 (A), DC(1-21) (B), and DC(4-21) (C) to 200 μM LTA-SA was measured using isothermal titration calorimetry (ITC). Every 300 seconds, 1.99 μl peptide solution was titrated into 164 μl LTA solution. The corrected heat rate (μJ sec^−1) is plotted (top panel) and normalized integrated heat was plotted against the molar ratio between LTA and the peptide (lower panel). Experiments (N=3) were averaged before plotting and fitting an independent model. The corrected heat rate of D-CATH2, DC(1-21), and DC(4-21) is depicted for comparison (D).
The interaction between the D-CATH2 peptides and LTA-SA was tested using isothermal titration calorimetry (ITC). All ITC experiments were performed on a Low Volume NanoITC (TA instruments-Waters LLC, New Castle, USA). 800 μM of LTA-SA or peptide solution was prepared in MilliQ after which a 4-fold dilution in dPBS (Gibco) was made. The chamber was filled with 164 μl LTA-SA and the peptide was loaded in the syringe. Every 300 seconds, 1.99 μL peptide was titrated into the chamber at 37° C. Data was analyzed using the Nano Analyze software (TA instruments-Waters LLC). The data of three experiments was averaged and an independent model was used to determine the peptide-LTA interaction.

[2] = system: 4 different S. suis serotype 2 strains; assay: Colony count assay (MBC), summary over the four strains; assay type: cell-based, Streptococcus suis; conditions: four sub-strains, RPMI+10% FCS medium
Description: FIG. 1: D-CATH2 and its derivatives efficiently kills several S. suis type2 strains in both THB and RPMI+FCS. Antibacterial activity of D-CATH2 and its derivatives against 10^6 CFU ml^−1 S. suis type 2 strains (P1/7, D282, 5735, and OV625) was tested using a colony count assay in both THB medium (A) and RPMI+FCS (B). 2 log CFU mL^−1 was set as detection limit for the experiment. Data is plotted as average +/−SEM (N=3-4).
S. suis Serotype 2 strains P1/7, D282, S735, and OV625 were grown into mid-logarithmic phase for 3-4 hours at 37° C. in THB, after which bacteria were centrifuged at 1200×g for 10 minutes at 4° C. and resuspended in fresh THB. Concentration was determined by measuring the OD value at 620 nm with an OD of 0.1 is 1×10^8 colony forming units (CFU) mL^−1. 10^6 CFU mL^−1 S suis was mixed with different concentrations of D-CATH and derivatives (0.63−40 μM) and left for 3 hours at 37° C. Ten-fold dilutions were prepared and spread in Tryptan Soy agar (TSA) plates containing 5% (vol/vol) defibrinated sheep blood (Oxoid) and colonies were allowed to grow for 48 hours. Minimal Bactericidal Concentration (MBC) was defined as ≤100 CFU mL^−1 (2 logCFU mL^−1), the detection limit of the assay.

[3] = system: murine macrophage cell-line; conditions: biological form of CATH2; cited from earlier work

**Q.** For `CC[C@@H](C)[C@@H](NC(=O)[C@@H](CCCCN)NC(=O)[C@@H](CCCNC(=N)N)NC(=O)[C@@H](CC(C)C)NC(=O)[C@@H](Cc1ccccc1)NC(=O)[C@@H](CCCNC(=N)N)NC(=O)CNC(=O)[C@@H](Cc1ccccc1)NC(=O)[C@H](N)CCCNC(=N)N)C(=O)N[C@H](CCCNC(=N)N)C(=O)N[C@H](CCCNC(=N)N)C(=O)N[C@H](Cc1ccccc1)C(=O)N[C@H](CCCNC(=N)N)C(=O)N1CCC[C@@H]1C(=O)N[C@H](CCCCN)C(=O)N[C@@H](C(=O)N[C@@H](C(=O)N[C@@H](C(=O)N[C@@H](C(=O)N[C@@H](C(=O)N[C@H](CCC(N)=O)C(=O)NCC(=O)N[C@H](CO)C(=O)N[C@H](C)C(=O)N[C@H](CCCNC(=N)N)C(=O)N[C@H](Cc1ccccc1)C(N)=O)[C@H](C)CC)[C@H](C)O)[C@H](C)CC)[C@H](C)O)C(C)C` [D-CATH2], which “cell viability of BMDMs” value (murine BMDMs) is on record?
**A.** relative sensitive

**Q.** For `CC[C@@H](C)[C@@H](NC(=O)[C@@H](CCCCN)NC(=O)[C@@H](CCCNC(=N)N)NC(=O)[C@@H](CC(C)C)NC(=O)[C@@H](Cc1ccccc1)NC(=O)[C@@H](CCCNC(=N)N)NC(=O)CNC(=O)[C@@H](Cc1ccccc1)NC(=O)[C@H](N)CCCNC(=N)N)C(=O)N[C@H](CCCNC(=N)N)C(=O)N[C@H](CCCNC(=N)N)C(=O)N[C@H](Cc1ccccc1)C(=O)N[C@H](CCCNC(=N)N)C(=O)N1CCC[C@@H]1C(=O)N[C@H](CCCCN)C(=O)N[C@@H](C(=O)N[C@@H](C(=O)N[C@@H](C(=O)N[C@@H](C(=O)N[C@@H](C(=O)N[C@H](CCC(N)=O)C(N)=O)[C@H](C)CC)[C@H](C)O)[C@H](C)CC)[C@H](C)O)C(C)C` [DC(1-21)], which “cell viability of BMDMs” value (murine BMDMs) is on record?
**A.** especially

**Q.** Which Kd [1] does the source give for `CC[C@@H](C)[C@@H](NC(=O)[C@@H](CCCCN)NC(=O)[C@@H](CCCNC(=N)N)NC(=O)[C@@H](CC(C)C)NC(=O)[C@@H](Cc1ccccc1)NC(=O)[C@H](N)CCCNC(=N)N)C(=O)N[C@H](CCCNC(=N)N)C(=O)N[C@H](CCCNC(=N)N)C(=O)N[C@H](Cc1ccccc1)C(=O)N[C@H](CCCNC(=N)N)C(=O)N1CCC[C@@H]1C(=O)N[C@H](CCCCN)C(=O)N[C@@H](C(=O)N[C@@H](C(=O)N[C@@H](C(=O)N[C@@H](C(=O)N[C@@H](C(=O)N[C@H](CCC(N)=O)C(N)=O)[C@H](C)CC)[C@H](C)O)[C@H](C)CC)[C@H](C)O)C(C)C` [DC(4-21), RFLRKIRRFRPKVTITIQ-NH2] (H-[dR][dF][dL][dR][dK][dI][dR][dR][dF][dR][dP][dK][dV][dT][dI][dT][dI][dQ]-NH2; N-terminus assumed) here?
**A.** 2120 nM

**Q.** What about the MBC [2] of the same compound?
**A.** 2.5 µM (≈ 5.82 µg/mL)

**Q.** With “RFGRFLRKIRRFRPKVTITIQGSARFG [CATH2, chicken cathelicidin-2, 27 amino acid C-terminal peptide]” as the compound, how does the “LPS and LTA activation” value [3] read?
**A.** inhibit
